Results reported in US20240391882A1 (Mirati Therapeutics, Inc., priority 2023, published 2024).

Key:
Type in all cases: cell-based
[1] = test system: SKBR3 (PI3Kα wild type) cells; assay: Cell viability (CellTiter-Glo 2.0) in SKBR3 cells; settings: Homo sapiens, SK-BR-3; SKBR3 (PI3Kα wild type) cells, approximately 72 hours, CellTiter-Glo 2.0; read-out: SKBR3 (WT) Viability IC50
Experimental: This Example illustrates that representative compounds of the invention decrease the viability of cells.
The ability of a compound of Formula (I) to decrease the viability of cells was measured using CellTiter-Glo 2.0 (CTG) Luminescent Cell Viability Assay (#G9241) obtained from Promega (Madison, WI).
To prepare assay plates for viability assays, cells were trypsinized, resuspended in fresh media, and viable cells were counted utilizing trypan blue exclusion. T47D, SKBR3, or MKN1 cells were seeded at 1000 cells in 30 μl per well in a solid white flat bottom 384 cell culture plate (Perkin Elmer #6007680) and incubated at 37° C. overnight.
Assay day 1, cells were dosed using an Echo Liquid Handler (Beckman Coulter) with compounds at a 10 μm starting concentration and serially diluted (1:4) for a total of 10 concentrations. Cells were incubated for approximately 72 hours with the compounds (solubilized in DMSO) at 37° C. After 72 hours of treatment, cell plates were equilibrated to room temperature before adding 15 μl of CTG to each well, plates were then covered in aluminum foil to protect from light, incubated at room temperature for 30 minutes on a microtiter plate shaker, and luminescence readings were collected using a CLARIOstar microplate reader (BMG Labtech, Germany). Percent of vehicle control values were plotted as log(inhibitor) vs. response—Variable slope (four parameters) for curve fitting and IC50 values were determined using XLfit.

[2] = test system: T47D (PI3Kα H1047R mutant) cells; assay: Cell viability (CellTiter-Glo 2.0) in T47D cells; settings: Homo sapiens, T47D, 72 h, approximately 72 hours
Summary of the method: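 SKBR3 or T47D cells, 1000 per well, were seeded overnight and then exposed ~72 h at 37° C to 10 concentrations of compound, 1:4 dilutions from 10 μm. Viability read by CellTiter-Glo luminescence as percent of vehicle; IC50 from four-parameter variable-slope fit.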

[3] = test system: pAKT in T47D (PI3Kα H1047R mutant) cells; assay: Inhibition of pAKT (alphaLISA Surefire Ultra AKT 1/2/3 pS473) in T47D cells; settings: Homo sapiens; T47D (PI3Kα H1047R mutant) cells, 24 hr compound incubation, alphaLISA pS473; read-out: T47D (H1047R) pAKT 24 hr (IC50)
Summary of the method: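 Cells in HBSS were dosed from 10.4 μm (1:4 serial dilution, 10 concentrations) and incubated about 24 hours at 37° C, then lysed. pAKT S473 measured by alphaLISA after overnight bead incubation. Signal normalised to alpelisib (3.125 μm) and DMSO controls; IC50 from four-parameter fit.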

SMILES | IC50 [1] [nM] | IC50 [2] [nM] | IC50 [3] [nM]
Cc1cc([C@@H](C)Nc2ccc(Cl)nc2C(=O)O)c2nc(N3C[C@@H]4C[C@H]3CC4(F)F)c(C#N)nc2c1 (single isomer, unassigned) [Example 8] | 3620 | 34.1 | 7.7
Cc1cc([C@@H](C)Nc2ccc(Cl)nc2C(=O)O)c2nc(N3C[C@H]4C[C@@H]3CC4(F)F)c(C#N)nc2c1 (single isomer, unassigned) [Example 9] | 3400 | 65.1 | 7.5
Cc1cc([C@@H](C)Nc2ccc(Cl)nc2C(=O)O)c2nc(N3CC4C[C@@]4(C(F)(F)F)C3)c(C#N)nc2c1 (single isomer, unassigned) [Example 43A] | > 10000 | 99 | 4.8
Cc1cc([C@@H](C)Nc2ccc(Cl)nc2C(=O)O)c2nc(N3CC4C[C@]4(C(F)(F)F)C3)c(C#N)nc2c1 (single isomer, unassigned) [Example 43B] | 4030 | 271 | 16.8
Cc1cc([C@@H](C)Nc2ccccc2C(=O)O)c2nc(NC[C@]3(C)CC3(F)F)c(C#N)nc2c1 (single isomer, unassigned) [Example 75A] | > 10000 | 701 | 52
Cc1cc([C@@H](C)Nc2ccccc2C(=O)O)c2nc(NC[C@@]3(C)CC3(F)F)c(C#N)nc2c1 (single isomer, unassigned) [Example 75B] | > 10000 | 720 | 39
CO[C@H](C)C1CCN(c2nc3c([C@@H](C)Nc4ccc(Cl)nc4C(=O)O)cc(C)cc3nc2C#N)CC1 (single isomer, unassigned) [Example 195A] | > 10000 | 84.1 | 0.47
CO[C@@H](C)C1CCN(c2nc3c([C@@H](C)Nc4ccc(Cl)nc4C(=O)O)cc(C)cc3nc2C#N)CC1 (single isomer, unassigned) [Example 195B] | > 10000 | 100 | 0.37
Cc1cc([C@@H](C)Nc2ccccc2C(=O)O)c2nc(NC3CC(F)(F)C3)c(C#N)nc2c1 [Example 76, (R)-2-((1-(2-cyano-3-((3,3-difluorocyclobutyl)amino)-7-methylquinoxalin-5-yl)ethyl)amino)benzoic acid] | > 10000 | 324 | 
Cc1cc([C@@H](C)Nc2ccc(Cl)nc2C(=O)O)c2nc(NC3CC(F)(F)C3)c(C#N)nc2c1 [Example 77, (R)-6-chloro-3-((1-(2-cyano-3-((3,3-difluorocyclobutyl)amino)-7-methylquinoxalin-5-yl)ethyl)amino)picolinic acid] | 8610 | 77 | 
Cc1cc([C@@H](C)Nc2ccc(Cl)nc2C(=O)O)c2nc(N3CCC(F)(F)[C@H](C)C3)c(C#N)nc2c1 [Example 78A, 6-chloro-3-(((R)-1-(2-cyano-3-((R)-4,4-difluoro-3-methylpiperidin-1-yl)-7-methylquinoxalin-5-yl)ethyl)amino)picolinic acid] | 7060 | 126 | 
Cc1cc([C@@H](C)Nc2ccc(Cl)nc2C(=O)O)c2nc(N3CCC(F)(F)[C@@H](C)C3)c(C#N)nc2c1 [Example 78B, 6-chloro-3-(((R)-1-(2-cyano-3-((S)-4,4-difluoro-3-methylpiperidin-1-yl)-7-methylquinoxalin-5-yl)ethyl)amino)picolinic acid] | > 10000 | 84.4 | 
Cc1cc([C@@H](C)Nc2ccccc2C(=O)O)c2nc(N3CCC(F)(F)[C@@H](C)C3)c(C#N)nc2c1 [Example 79A, 2-(((R)-1-(2-cyano-3-((S)-4,4-difluoro-3-methylpiperidin-1-yl)-7-methylquinoxalin-5-yl)ethyl)amino)benzoic acid] | > 10000 | 252 | 
Cc1cc([C@@H](C)Nc2ccccc2C(=O)O)c2nc(N3CCC(F)(F)[C@H](C)C3)c(C#N)nc2c1 [Example 79B, 2-(((R)-1-(2-cyano-3-((R)-4,4-difluoro-3-methylpiperidin-1-yl)-7-methylquinoxalin-5-yl)ethyl)amino)benzoic acid] | > 10000 | 176 | 
Cc1cc([C@@H](C)Nc2ccc(Cl)nc2C(=O)O)c2nc(N3CCc4ccccc4C3)c(C#N)nc2c1 [Example 83, (R)-6-chloro-3-((1-(2-cyano-3-(3,4-dihydroisoquinolin-2(1H)-yl)-7-methylquinoxalin-5-yl)ethyl)amino)picolinic acid] | > 10000 | 60.7 | 
Cc1cc([C@@H](C)Nc2ccccc2C(=O)O)c2nc(N3CCc4ccccc4C3)c(C#N)nc2c1 [Example 84, (R)-2-((1-(2-cyano-3-(3,4-dihydroisoquinolin-2(1H)-yl)-7-methylquinoxalin-5-yl)ethyl)amino)benzoic acid] | > 10000 | 343 | 
Cc1cc([C@@H](C)Nc2ccccc2C(=O)O)c2nc(N3CCc4cc(C#N)ccc4C3)c(C#N)nc2c1 [Example 86, (R)-2-((1-(2-cyano-3-(6-cyano-3,4-dihydroisoquinolin-2(1H)-yl)-7-methylquinoxalin-5-yl)ethyl)amino)benzoic acid] | > 10000 | 270 | 
Cc1cc([C@@H](C)Nc2ccc(Cl)nc2C(=O)O)c2nc(N3CCc4cc(F)ccc4C3)c(C#N)nc2c1 [Example 87, (R)-6-chloro-3-((1-(2-cyano-3-(6-fluoro-3,4-dihydroisoquinolin-2(1H)-yl)-7-methylquinoxalin-5-yl)ethyl)amino)picolinic acid] | 9250 | 88.7 | 
Cc1cc([C@@H](C)Nc2ccccc2C(=O)O)c2nc(N3CCc4cc(F)ccc4C3)c(C#N)nc2c1 [Example 88, (R)-2-((1-(2-cyano-3-(6-fluoro-3,4-dihydroisoquinolin-2(1H)-yl)-7-methylquinoxalin-5-yl)ethyl)amino)benzoic acid] | > 10000 | 365 | 
Cc1cc([C@@H](C)Nc2ccccc2C(=O)O)c2nc(N3CCc4ccncc4C3)c(C#N)nc2c1 [Example 89, (R)-2-((1-(2-cyano-3-(3,4-dihydro-2,7-naphthyridin-2(1H)-yl)-7-methylquinoxalin-5-yl)ethyl)amino)benzoic acid] | > 10000 | 63.2 | 
Cc1cc([C@@H](C)Nc2ccc(Cl)nc2C(=O)O)c2nc(N3CCC(S(C)(=O)=O)CC3)c(C#N)nc2c1 [Example 106, (R)-6-chloro-3-((1-(2-cyano-7-methyl-3-(4-(methylsulfonyl)piperidin-1-yl)quinoxalin-5-yl)ethyl)amino)picolinic acid] | > 10000 | 98.1 | 
Cc1cc([C@@H](C)Nc2ccc(Cl)nc2C(=O)O)c2nc(N3CC[S+]([O-])CC3)c(C#N)nc2c1 [Example 107, (R)-6-chloro-3-((1-(2-cyano-7-methyl-3-(1-oxidothiomorpholino)quinoxalin-5-yl)ethyl)amino)picolinic acid] | > 10000 | 216 | 
Cc1cc([C@@H](C)Nc2ccccc2-c2nnn[nH]2)c2nc(N3CCOCC3)c(C#N)nc2c1 [Example 852, (R)-5-(1-((2-(1H-tetrazol-5-yl)phenyl)amino)ethyl)-7-methyl-3-morpholinoquinoxaline-2-carbonitrile] | > 10000 | 1440 | 
Cc1cc([C@@H](C)Nc2ccccc2C#N)c2nc(N3CCOCC3)c(C#N)nc2c1 [Example 853, (R)-5-(1-((2-cyanophenyl)amino)ethyl)-7-methyl-3-morpholinoquinoxaline-2-carbonitrile] | > 10000 | 4340 | 
Cc1cc([C@@H](C)Nc2ccc(Cl)nc2-c2nnn[nH]2)c2nc(N3CCOCC3)c(C#N)nc2c1 [Example 854, (R)-5-(1-((6-chloro-2-(1H-tetrazol-5-yl)pyridin-3-yl)amino)ethyl)-7-methyl-3-morpholinoquinoxaline-2-carbonitrile] | 4380 | 52 | 
Cc1cc([C@@H](C)Nc2ccc(Cl)nc2C#N)c2nc(N3CCOCC3)c(C#N)nc2c1 [Example 855, (R)-5-(1-((6-chloro-2-cyanopyridin-3-yl)amino)ethyl)-7-methyl-3-morpholinoquinoxaline-2-carbonitrile] | 6900 | 1080 | 
CNC(=O)c1ccccc1N[C@H](C)c1cc(C)cc2nc(C#N)c(N3CCOCC3)nc12 [Example 856, (R)-2-((1-(2-cyano-7-methyl-3-morpholinoquinoxalin-5-yl)ethyl)amino)-N-methylbenzamide] | 3560 | 3440 | 
